Converted amounts (≈) assume the structure as drawn.
How the values were obtained:
[1] = Bulk density, tapped density and Carr index of primidone and primidone granules; type: physicochemical; conditions: for Carr Index: percent compressibility from tapped and bulk density
Text: “Carr index” as used herein is defined as the percent compressibility, that is a percentage ratio of the difference between tapped bulk density and initial bulk density to tapped bulk density.

[2] = cited from earlier work

Row | Compound | Bulk Density, (Db) [1] | Tapped density (Dt) [1] | Carr Index [1] | solubility in water [2]
1 | CCC1(c2ccccc2)C(=O)NCNC1=O [Primidone Particle size D90 307 μm] | 0.850 g/mL | 0.905 g/mL | 6.1% | 
2 | CCC1(c2ccccc2)C(=O)NCNC1=O [Primidone, 5-ethyldihydro-5-phenyl-4,6 (1H, 5H pyrimidinedione)] |  |  |  | 0.6 mg/mL (≈ 2750 µM)
3 | CCC1(c2ccccc2)C(=O)NCNC1=O [Primidone Particle size D90 7.1 μm] | 0.221 g/mL | 0.307 g/mL | 28% | 

Source: patent US20070149779A1, “PRIMIDONE PROCESS AND COMPOSITIONS” (priority 2005, published 2007)
